Literature values, collected in patent publication US20040009220A1, “Rate-controlled beta blockers and process for forming same” (priority 2001, published 2004).

Assays:
[1] = in man

| plasma half life [1] | solubility in water | Compound |
| --- | --- | --- |
| three to seven | – | COCCc1ccc(OCC(O)CNC(C)C)cc1 (centres unmarked) [Metroprolol] |
| – | freely soluble in water | COCCc1ccc(OCC(O)CNC(C)C)cc1 (centres unmarked) [metoprolol succinate] |
